# Measured values as given in ChEMBL document CHEMBL3822455, “Aryl or heteroaryl substituted aminal derivatives of HCV NS5A inhibitor MK-8742” (Bioorg Med Chem Lett, 2016).
# Legend:
# Canis familiaris [1] = experiment: Oral bioavailability in beagle dog at 5 mg/kg; type: ADME, organism-based, Canis lupus familiaris; settings: in vivo
# Hepatitis C virus [2] = experiment: Antiviral activity against HCV genotype 1a harboring NS5A Y93H mutant assessed as replicon RNA level measured after 3 days by real-time PCR method; type: functional, organism-based, Hepacivirus hominis; settings: subtype 1a, 72 h
# Rattus norvegicus [3] = experiment: AUC in Sprague-Dawley rat at 5 mg/kg, po; type: ADME, organism-based; settings: in vivo
# Hepatitis C virus [4] = experiment: Antiviral activity against HCV genotype 2a assessed as replicon RNA level measured after 3 days by real-time PCR method; type: functional, organism-based, Hepacivirus hominis; settings: 72 h
# Hepatitis C virus [5] = experiment: Antiviral activity against HCV genotype 1a harboring NS5A L31V mutant assessed as replicon RNA level measured after 3 days by real-time PCR method; type: functional, organism-based, Hepacivirus hominis; settings: subtype 1a, 72 h
# Rattus norvegicus [6] = experiment: (§1) Oral bioavailability in Sprague-Dawley rat at 5 mg/kg; type: ADME, organism-based; settings: in vivo
# Canis familiaris [7] = experiment: AUC in beagle dog at 5 mg/kg, po; type: ADME, organism-based, Canis lupus familiaris; settings: in vivo
# Hepatitis C virus [8] = experiment: Antiviral activity against HCV genotype 1a assessed as replicon RNA level measured after 3 days by real-time PCR method; type: functional, organism-based, Hepacivirus hominis; settings: subtype 1a, 72 h
# Hepatitis C virus [9] = experiment: Antiviral activity against HCV genotype 3a assessed as replicon RNA level measured after 3 days by real-time PCR method; type: functional, organism-based, Hepacivirus hominis; settings: 72 h
# Hepatitis C virus [10] = experiment: Antiviral activity against HCV genotype 1b assessed as replicon RNA level measured after 3 days by real-time PCR method; type: functional, organism-based, Hepacivirus hominis; settings: 72 h
# Hepatitis C virus [11] = experiment: Antiviral activity against HCV genotype 2b assessed as replicon RNA level measured after 3 days by real-time PCR method; type: functional, organism-based, Hepacivirus hominis; settings: 72 h
# [12] = Half life in beagle dog at 2 mg/kg, iv or 5 mg/kg, po; type: ADME, organism-based, Canis lupus familiaris; settings: in vivo
# Hepatitis C virus [13] = experiment: Antiviral activity against HCV genotype 4a assessed as replicon RNA level measured after 3 days by real-time PCR method; type: functional, organism-based, Hepacivirus hominis; settings: 72 h
# [14] = Half life in Sprague-Dawley rat at 2 mg/kg, iv or 5 mg/kg, po; type: ADME, organism-based; settings: in vivo
# [15] = as §1; type: ADME, organism-based; settings: Sprague-Dawley, in vivo
# Hepatitis C virus [16] = experiment: Selectivity ratio of EC50 for HCV genotype 1a harboring NS5A L31V mutant to EC50 for HCV genotype 1a; type: functional, Hepacivirus hominis, subtype 1a
# [17] = Selectivity ratio of EC50 for HCV genotype 2b to EC50 for HCV genotype 1a; type: functional
# Hepatitis C virus [18] = experiment: Selectivity ratio of EC50 for HCV genotype 1a harboring NS5A Y93H mutant to EC50 for HCV genotype 1a; type: functional, Hepacivirus hominis, subtype 1a
SMILES,F (Canis familiaris [1]) [%],EC50 (Hepatitis C virus [2]) [nM],AUC (Rattus norvegicus [3]) [µM·h],EC50 (Hepatitis C virus [4]) [nM],EC50 (Hepatitis C virus [5]) [nM],F (Rattus norvegicus [6]) [%],AUC (Canis familiaris [7]) [µM·h],EC50 (Hepatitis C virus [8]) [nM],EC50 (Hepatitis C virus [9]) [nM],EC50 (Hepatitis C virus [10]) [nM],EC50 (Hepatitis C virus [11]) [nM],half-life [12] [h],EC50 (Hepatitis C virus [13]) [nM],half-life [14] [h],bioavailability [15] [%],Ratio EC50 (Hepatitis C virus [16]),Ratio EC50 [17],Ratio EC50 (Hepatitis C virus [18])
COC(=O)N[C@H](C(=O)N1CCC[C@H]1c1ncc(-c2ccc3c(c2)OC(c2cccc(OC)c2)n2c-3cc3cc(-c4cnc([C@@H]5CCCN5C(=O)[C@@H](NC(=O)OC)C(C)C)[nH]4)ccc32)[nH]1)C(C)C (mixture of isomers),34,< 2,0.52,0.004,0.04,6,5,0.004,0.02,0.002,0.4,7.9,0.002,4.6,–,–,–,–
COC(=O)N[C@H](C(=O)N1CCC[C@H]1c1ncc(-c2ccc3c(c2)OC(c2cc(OC)cc(OC)c2)n2c-3cc3cc(-c4cnc([C@@H]5CCCN5C(=O)[C@@H](NC(=O)OC)C(C)C)[nH]4)ccc32)[nH]1)C(C)C (mixture of isomers),–,0.8,–,0.002,0.3,–,–,0.003,0.02,0.002,0.2,–,0.01,–,0,100,67,267
